Earlier results, collected in patent US20050032747A1, “COX-2 and FAAH inhibitors” (priority 2003, published 2005).

Test system: prostaglandin synthesis
Details: reported by Shen et al. 1977

Question: For `Cc1c(CC(=O)O)c2cc(O)ccc2n1C(=O)c1ccc(Cl)cc1` [desmethylindomethacin, O-desmethylindomethacin], which “ability to inhibit prostaglandin synthesis” value is on record?
Answer: Its value is “some ability to inhibit prostaglandin synthesis”.
